Data from patent US12715867B2, “Agonists of free fatty acid receptor 1 and their use in diseases associated with said receptor” (HALO Therapeutics Ltd, priority 2020, dated 2026).

Test system: C57Bl/6N male mice
Test: OGTT testing in C57Bl/6N male mice (oral glucose tolerance test)
Assay type: in vivo
Conditions: single per os dose 60 min before glucose 2 g/kg; Z1558775684 20 mg/kg, Metformin 300 mg/kg; compared with Vehicle-treated group; 5 mice per group
Method: Values are expressed as means of 5 animals tested. For glucose tolerance test (GTT), mice were orally treated with glucose at dose of 2 g/kg at the dose volume of 10 ml/kg after a 6-hour fasting. Glucose measurements were performed immediately before compound treatment (−60 min), at −30 min, 0 min (before glucose administration), and then 15, 30, 60, 90 and 120 min after glucose administration.
Example 87: OGTT Testing in C57Bl/6N Male Mice
Each experimental group consisted of five male C57Bl/6N mice. Animals were dosed once perorally with 20 mg/kg of tested compound Z1558775684. A control group was dosed with vehicle on the same schedule. Metformin at the dosage of 300 mg/kg was used as reference compound.
Compound Z1558775684 was dissolved/suspended in DMSO—PEG400—physiological saline (20%:50%:30%) at concentration 4 mg/ml. Metformin was dissolved in the same vehicle at concentration 60 mg/ml. The test samples were administered per os in the volume corresponding to 5 ml/kg body weight.
Single doses of test samples were administered 60 min before glucose treatment at 3 p.m.
The blood glucose level was measured after 6-hour fasting using Call Plus glucometer and specific test strips. Blood was obtained from the tail vein by incision of the tail tip, 5-6 μl of blood was used for each assay. […]

Row | SMILES | glucose level during oral glucose tolerance test (OGTT)
1 | CN(C)C(=N)N=C(N)N [Metformin] | Statistically significant decrease in glucose level
2 | CCc1nc(N)nc(SCc2ncc(-c3cccc(Cl)c3)o2)n1 [Compound Z1558775684, 4-(((5-(3-chlorophenyl)oxazol-2-yl)methyl)thio)-6-ethyl-1,3,5-triazin-2-amine] | Statistically significant decrease in glucose level
